pIC50: −log10 of the molar value. Where two headings read alike, the source gives them in different places.
Tests used:
Human Calpain 1/NS1 = biological target: T1, Human Calpain 1/NS1 (Homo sapiens, UniProt P07384); experiment: Calpain inhibition continuous fluorescence (FRET) assay, Human Calpain 1/NS1; format: biochemical; details: read-out: Human Calpain 1/NS1 IC50
T1 sequence (P07384 1-714): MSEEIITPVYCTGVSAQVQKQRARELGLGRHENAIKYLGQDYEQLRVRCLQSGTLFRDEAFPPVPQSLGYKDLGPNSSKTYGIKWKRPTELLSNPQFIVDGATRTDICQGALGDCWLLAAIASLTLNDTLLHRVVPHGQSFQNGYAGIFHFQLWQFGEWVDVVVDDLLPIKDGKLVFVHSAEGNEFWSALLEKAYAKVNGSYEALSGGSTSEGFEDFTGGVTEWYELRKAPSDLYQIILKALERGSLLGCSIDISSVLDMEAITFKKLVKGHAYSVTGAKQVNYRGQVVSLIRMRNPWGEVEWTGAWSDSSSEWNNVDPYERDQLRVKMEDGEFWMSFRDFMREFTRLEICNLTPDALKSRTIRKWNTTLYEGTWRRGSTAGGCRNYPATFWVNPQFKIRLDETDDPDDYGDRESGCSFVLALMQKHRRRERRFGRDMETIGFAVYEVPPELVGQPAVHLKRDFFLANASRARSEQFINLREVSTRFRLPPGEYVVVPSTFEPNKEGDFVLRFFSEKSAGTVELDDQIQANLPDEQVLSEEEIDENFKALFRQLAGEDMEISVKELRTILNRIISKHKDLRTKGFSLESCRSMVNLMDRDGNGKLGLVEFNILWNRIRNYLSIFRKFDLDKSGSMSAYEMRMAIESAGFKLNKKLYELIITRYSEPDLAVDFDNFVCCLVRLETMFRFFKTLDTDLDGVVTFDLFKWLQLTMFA
T1 sequence (P04632 1-268 partner): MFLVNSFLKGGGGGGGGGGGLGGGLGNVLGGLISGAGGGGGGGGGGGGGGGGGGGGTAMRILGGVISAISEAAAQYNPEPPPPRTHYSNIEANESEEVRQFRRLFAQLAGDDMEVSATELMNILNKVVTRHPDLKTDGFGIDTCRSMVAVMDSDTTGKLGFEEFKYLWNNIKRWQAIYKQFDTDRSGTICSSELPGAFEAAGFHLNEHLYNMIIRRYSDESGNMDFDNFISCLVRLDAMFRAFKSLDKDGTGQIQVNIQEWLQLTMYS
Outline: (§1)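 Human calpains 1, 2 and 9 preincubated with inhibitor at 25 °C in 50 mM Tris pH 7.5, 100 mM NaCl, 1 mM DTT; reaction started with 5-FAM/QXL 520 FRET peptide plus CaCl2 for activation. Fluorescence (490/520 nm) followed 10 min; rates from 1-5 min slopes fitted to 4-parameter logistic for IC50.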

Human Calpain 2/NS1 = biological target: T2, Human Calpain 2/NS1 (Homo sapiens, UniProt P17655); experiment: Calpain inhibition continuous fluorescence (FRET) assay, Human Calpain 2/NS1; format: biochemical; details: read-out: Human Calpain 2/NS1 IC50
T2 sequence (P17655 1-700): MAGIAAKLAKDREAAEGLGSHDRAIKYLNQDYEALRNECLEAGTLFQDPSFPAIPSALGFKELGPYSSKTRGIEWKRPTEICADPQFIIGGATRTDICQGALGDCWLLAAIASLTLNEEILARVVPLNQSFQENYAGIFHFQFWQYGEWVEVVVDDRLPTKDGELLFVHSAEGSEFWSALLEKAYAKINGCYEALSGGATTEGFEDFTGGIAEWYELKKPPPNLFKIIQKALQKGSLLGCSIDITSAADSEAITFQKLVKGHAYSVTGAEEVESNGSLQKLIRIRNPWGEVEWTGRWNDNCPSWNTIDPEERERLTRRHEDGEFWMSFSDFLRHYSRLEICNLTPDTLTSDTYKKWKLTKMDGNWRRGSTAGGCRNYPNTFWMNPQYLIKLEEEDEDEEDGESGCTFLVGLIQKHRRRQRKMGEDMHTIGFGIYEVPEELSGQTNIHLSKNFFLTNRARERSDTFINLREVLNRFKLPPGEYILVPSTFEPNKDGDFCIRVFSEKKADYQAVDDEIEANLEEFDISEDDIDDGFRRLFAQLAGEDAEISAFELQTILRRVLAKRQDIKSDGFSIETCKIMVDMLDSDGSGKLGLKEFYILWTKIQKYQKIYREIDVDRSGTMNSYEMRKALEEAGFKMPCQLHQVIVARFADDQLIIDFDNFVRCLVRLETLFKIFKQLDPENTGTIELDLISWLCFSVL
T2 sequence (P04632 1-268 partner): T1 sequence (P04632 1-268 partner)
Outline: as §1

Human Calpain 9/NS1 = biological target: T3, Human Calpain 9/NS1 (Homo sapiens, UniProt O14815); experiment: Calpain inhibition continuous fluorescence (FRET) assay, Human Calpain 9/NS1; format: biochemical; details: read-out: Human Calpain 9/NS1 IC50
T3 sequence (O14815 1-690): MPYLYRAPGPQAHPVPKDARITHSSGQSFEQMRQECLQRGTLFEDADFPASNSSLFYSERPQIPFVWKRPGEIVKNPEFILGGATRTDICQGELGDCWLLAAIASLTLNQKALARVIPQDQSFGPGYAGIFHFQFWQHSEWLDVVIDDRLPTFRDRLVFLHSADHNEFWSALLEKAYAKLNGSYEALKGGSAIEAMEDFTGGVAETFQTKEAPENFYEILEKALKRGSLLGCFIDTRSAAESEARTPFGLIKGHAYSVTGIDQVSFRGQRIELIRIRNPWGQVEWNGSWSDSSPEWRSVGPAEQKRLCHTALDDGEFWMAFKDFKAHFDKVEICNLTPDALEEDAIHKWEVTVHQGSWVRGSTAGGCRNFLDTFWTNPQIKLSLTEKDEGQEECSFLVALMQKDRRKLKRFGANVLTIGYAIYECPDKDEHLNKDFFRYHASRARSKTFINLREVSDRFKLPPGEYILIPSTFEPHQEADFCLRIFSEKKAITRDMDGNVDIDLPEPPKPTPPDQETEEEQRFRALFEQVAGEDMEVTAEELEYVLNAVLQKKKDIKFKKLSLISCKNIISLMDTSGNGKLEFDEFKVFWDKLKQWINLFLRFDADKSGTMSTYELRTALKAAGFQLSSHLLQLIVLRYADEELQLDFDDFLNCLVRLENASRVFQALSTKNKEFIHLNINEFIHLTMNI
T3 sequence (P04632 1-268 partner): T1 sequence (P04632 1-268 partner)
Outline: as §1

[1] = test system: Calpain activity in SH-SY5Y cells (SBDP-150); experiment: SH-SY5Y Spectrin western blot assay (SBDP-150 breakdown product, A23187-induced); format: cell-based; details: SH-SY5Y cells, read-out: SH-SY5Y Spectrin IC50
[2] = test system: Calpain activity in SH-SY5Y cells; experiment: SH-SY5Y + AMC fluorescence assay (Suc-LLVY-AMC substrate); format: cell-based; details: read-out: SH-SY5Y + AMC IC50
[3] = Homo sapiens, A23187-induced SBDP-150, western blot
[4] = Homo sapiens, Column D, A23187-induced SBDP-150

| Molecule | pIC50 (Human Calpain 1/NS1) | pIC50 (Human Calpain 2/NS1) | pIC50 (Human Calpain 9/NS1) | pIC50 [1, 3] | pIC50 [2] | pIC50 (Human Calpain 1/NS1; Column A) | pIC50 (Human Calpain 2/NS1; Column B) | pIC50 (Human Calpain 9/NS1; Column C) | pIC50 [1, 4] | pIC50 ([2]; Column E) | pIC50 ([1]; Column D, A23187-induced SBDP-150) |
| --- | --- | --- | --- | --- | --- | --- | --- | --- | --- | --- | --- |
| NC(=O)C(=O)C(Cc1ccccc1)NC(=O)c1cn(C(F)F)nc1-c1ccc2cnccc2c1 (stereo not shown) [Compound 577, N-(4-amino-3,4-dioxo-1-phenylbutan-2-yl)-1-(difluoromethyl)-3-(isoquinolin-6-yl)-1H-pyrazole-4-carboxamide] | > 5.52 | > 5.52 | > 5.52 | > 5.00 | > 5.00 | – | – | – | – | – | – |
| Cc1ccc(F)cc1-c1oncc1C(=O)NC(Cc1ccccc1)C(=O)C(N)=O (stereo not shown) [Compound 558, N-(4-amino-3,4-dioxo-1-phenylbutan-2-yl)-5-(5-fluoro-2-methylphenyl)isoxazole-4-carboxamide] | > 5.52 | > 5.52 | > 5.52 | 4.60 to 5.00 | > 5.00 | – | – | – | – | – | – |
| NC(=O)C(=O)C(Cc1ccccc1)NC(=O)c1nsnc1-c1ccccn1 (stereo not shown) [Compound 373, N-(4-amino-3,4-dioxo-1-phenylbutan-2-yl)-4-(pyridin-2-yl)-1,2,5-thiadiazole-3-carboxamide] | > 5.52 | > 5.52 | > 5.52 | > 5.00 | > 5.00 | – | – | – | – | – | – |
| NC(=O)C(=O)C(Cc1ccccc1)NC(=O)c1cc(C(F)(F)F)nn1-c1ncccn1 (stereo not shown) [Compound 349, N-(4-amino-3,4-dioxo-1-phenylbutan-2-yl)-1-(pyrimidin-2-yl)-3-(trifluoromethyl)-1H-pyrazole-5-carboxamide] | > 5.52 | > 5.52 | > 5.52 | < 4.60 | > 5.00 | – | – | – | – | – | – |
| Cc1cc(C(=O)N[C@@H](Cc2ccccc2)C(=O)C(N)=O)n(-c2ccc(C#N)cn2)n1 [Compound 208] | – | – | – | – | – | > 5.52 | > 5.52 | > 5.52 | > 5.00 | < 4.60 | – |
| Cc1cc(C(=O)N[C@@H](Cc2ccccc2)C(=O)C(N)=O)n(-c2cccc(-c3ccccc3C)c2)n1 [Compound 81, (S)—N-(4-amino-3,4-dioxo-1-phenylbutan-2-yl)-3-methyl-1-(2′-methyl-[1,1′-biphenyl]-3-yl)-1H-pyrazole-5-carboxamide] | – | – | – | – | – | > 5.52 | > 5.52 | > 5.52 | > 5.00 | 4.60 to 5.00 | – |
| Cn1cnc(-c2ccccc2)c1C(=O)N[C@@H](Cc1ccccc1)C(=O)C(N)=O [Compound 268, (S)—N-(4-amino-3,4-dioxo-1-phenylbutan-2-yl)-1-methyl-4-phenyl-1H-imidazole-5-carboxamide] | – | – | – | – | – | > 5.52 | > 5.52 | > 5.52 | < 4.60 | < 4.60 | – |
| O=CC(Cc1ccccc1)NC(=O)c1nsnc1-c1ccccc1 (stereo not shown) [Compound 401, N-(1-oxo-3-phenylpropan-2-yl)-4-phenyl-1,2,5-thiadiazole-3-carboxamide] | > 5.52 | > 5.52 | > 5.52 | > 5.00 | < 4.60 | – | – | – | – | – | – |
| (S)—N-(4-amino-3,4-dioxo-1-phenylbutan-2-yl)-3-methyl-1-(5-methylpyridin-2-yl)-1H-pyrazole-5-carboxamide [Compound 121] | – | – | – | – | – | > 5.52 | > 5.52 | > 5.52 | – | 4.60 to 5.00 | > 5.00 |
| NC(=O)C(=O)C(Cc1ccccc1)NC(=O)c1nc(C2CC2)oc1-c1ccccc1 (stereo not shown) [Compound 394, N-(4-amino-3,4-dioxo-1-phenylbutan-2-yl)-2-cyclopropyl-5-phenyloxazole-4-carboxamide] | > 5.52 | > 5.52 | > 5.52 | < 4.60 | < 4.60 | – | – | – | – | – | – |
| Cn1cc(C(=O)N[C@@H](Cc2ccc(O)cc2)C(=O)C(N)=O)c(-c2ccccc2)n1 [Compound 421, (S)—N-(4-amino-1-(4-hydroxyphenyl)-3,4-dioxobutan-2-yl)-1-methyl-3-phenyl-1H-pyrazole-4-carboxamide] | > 5.52 | > 5.52 | > 5.52 | 4.60 to 5.00 | > 5.00 | – | – | – | – | – | – |
